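Step 1: Grow cells in 96-well plates. Step 2: Expose to compound for 48 hours at 5 concentrations. Step 3: Interpolate endpoints linearly; if unreached, use highest concentration. TGI marks complete inhibition of growth.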 A value given as a limit tells only on which side of the number the result lay.

The values that follow come from PubChem BioAssay (NCI).

Test systems include A498 renal; DU-145 prostate; MCF7 breast; SF-539 CNS; SK-MEL-5 melanoma; SN12C renal; T-47D breast; UACC-257 melanoma; CCRF-CEM leukemia; OVCAR-3 ovarian.
Holding throughout (assay): inhibition of tumour cell growth, NCI panel, 48 h

Take `O=C1CC(Cl)c2c(Cl)sc(Cl)c21` (stereo not drawn): the TGI was determined as 27.3 µM with A498 renal; 7.13 µM in the experiment on DU-145 prostate; 2.11 µM with MCF7 breast; 8.32 µM in the experiment on SF-539 CNS; 26.2 µM in the experiment on SK-MEL-5 melanoma; 3.15 µM in the experiment with SN12C renal. Also, the figures for the TGI in the experiment on T-47D breast and in the experiment on UACC-257 melanoma were greater than 22 µM and 9.25 µM, respectively.
In the case of `O=Cc1cc(O)c(O)c(/C=N/n2c3ccccc3c3ccccc32)c1`, the TGI stood at 49.8 µM in the experiment on A498 renal; 9.87 µM in the experiment on CCRF-CEM leukemia; 49 µM in the experiment with DU-145 prostate; 4.62 µM in the experiment on MCF7 breast; 10.1 µM in the experiment with OVCAR-3 ovarian; 24.7 µM in the experiment on SF-539 CNS. The TGI in the experiment with SN12C renal was 18.2 µM; in the experiment on T-47D breast, 40.4 µM; with UACC-257 melanoma, 27.9 µM.
For the compound `Cc1ccc(Nc2nc(NS(=O)(=O)c3cc(C)c(Cl)cc3S)n[nH]2)cc1`, the TGI in the experiment with A498 renal, in the experiment on CCRF-CEM leukemia, in the experiment with DU-145 prostate, in the experiment with MCF7 breast, with OVCAR-3 ovarian and with SF-539 CNS was greater than 100 µM each time. Also, the TGI in the experiment on SK-MEL-5 melanoma, in the experiment with SN12C renal, with T-47D breast and with UACC-257 melanoma was greater than 100 µM each time.
Regarding `Cc1csc2n(C)c(=O)c3ccccc3[n+]12`, the TGI with CCRF-CEM leukemia, in the experiment on DU-145 prostate, with MCF7 breast, in the experiment with OVCAR-3 ovarian, in the experiment on SF-539 CNS and in the experiment on SK-MEL-5 melanoma was greater than 100 µM each time. In addition, the TGI in the experiment with SN12C renal, in the experiment with T-47D breast and with UACC-257 melanoma was greater than 100 µM throughout.
With `Cc1nn(C(=O)c2ccc(Cl)cc2)c2c1C(c1ccco1)SC(N)=N2` (stereo not drawn), the TGI in the experiment on CCRF-CEM leukemia, with DU-145 prostate, in the experiment on MCF7 breast, in the experiment on OVCAR-3 ovarian, in the experiment with SF-539 CNS and in the experiment with SK-MEL-5 melanoma was greater than 10 µM each time. Also, the TGI in the experiment with SN12C renal, in the experiment on T-47D breast and in the experiment on UACC-257 melanoma was greater than 10 µM in each case.
In the case of `CCOC(=O)O/N=C1/C(c2c(O)[nH]c3ccccc23)=Nc2ccccc21`, the TGI in the experiment with A498 renal came to 16.8 µM; with CCRF-CEM leukemia it was 16.6 µM; with DU-145 prostate it was 13.3 µM; in the experiment on MCF7 breast, 18.4 µM; in the experiment on OVCAR-3 ovarian, 8 µM; with SK-MEL-5 melanoma it was 6.99 µM. The TGI in the experiment on SN12C renal came to 23.2 µM; in the experiment with T-47D breast, 25.6 µM; with UACC-257 melanoma, 24.6 µM.
As for `O=C(NNCc1ccccc1O)c1ccccc1O`, the TGI with A498 renal is greater than 100 µM; in the experiment with DU-145 prostate it was 43.4 µM; in the experiment with MCF7 breast, 80.3 µM; with OVCAR-3 ovarian, 6.29 µM; in the experiment on SF-539 CNS, greater than 100 µM; in the experiment with SK-MEL-5 melanoma, 25.8 µM. Moreover, the figures for the TGI in the experiment with SN12C renal, in the experiment on T-47D breast and in the experiment on UACC-257 melanoma were greater than 100 µM, 35 µM and greater than 100 µM, respectively.
Regarding `OCCNc1nc2c(N3CCCC3)nc(N3CCNCC3)nc2nc1NCc1ccccc1`, the TGI turned out to be 30 µM with CCRF-CEM leukemia; 24.2 µM in the experiment on DU-145 prostate; 28.3 µM with MCF7 breast; 18.6 µM in the experiment with OVCAR-3 ovarian; 32 µM in the experiment with SF-539 CNS; 26.1 µM in the experiment on SK-MEL-5 melanoma. For the same compound, the TGI in the experiment with SN12C renal was 30.7 µM; in the experiment on T-47D breast, 30.8 µM; in the experiment on UACC-257 melanoma, 33.5 µM.
With `CCOC(=O)CCC(NC(=O)c1ccc(NCc2ccc3nc(-c4ccccc4)c(Cl)nc3c2)c2ccccc12)C(=O)OCC` (stereo not drawn), the TGI in the experiment on A498 renal, in the experiment on DU-145 prostate, with MCF7 breast, in the experiment with OVCAR-3 ovarian, in the experiment on SF-539 CNS and in the experiment with SK-MEL-5 melanoma was greater than 100 µM throughout. Moreover, the TGI is greater than 100 µM with SN12C renal, greater than 100 µM in the experiment with T-47D breast and 61.5 µM with UACC-257 melanoma.
Consider `CCOC(=O)C12C(=O)CCN1CCc1ccccc1C2C` (stereo not drawn), for which the TGI in the experiment with A498 renal, in the experiment with DU-145 prostate, in the experiment on MCF7 breast, in the experiment with OVCAR-3 ovarian, in the experiment on SF-539 CNS and in the experiment on SK-MEL-5 melanoma was greater than 100 µM in each case. Further, the TGI with SN12C renal, in the experiment on T-47D breast and in the experiment on UACC-257 melanoma was greater than 100 µM in each case.
In the case of `c1ccc2nn(C3CCCCO3)nc2c1` (stereo not drawn), the TGI with CCRF-CEM leukemia, in the experiment with DU-145 prostate, in the experiment with MCF7 breast, in the experiment with OVCAR-3 ovarian, in the experiment on SF-539 CNS and in the experiment on SK-MEL-5 melanoma was greater than 100 µM throughout. In addition, the TGI in the experiment with SN12C renal, with T-47D breast and in the experiment on UACC-257 melanoma was greater than 100 µM each time.
`Cn1c(=O)c2[nH]c(-n3nc(-c4ccccc4)cc3N)nc2n(C)c1=O`: the TGI in the experiment with A498 renal is 27.9 µM; in the experiment on CCRF-CEM leukemia, greater than 100 µM; in the experiment with DU-145 prostate, 45 µM; with MCF7 breast, greater than 100 µM; in the experiment with OVCAR-3 ovarian, greater than 100 µM; with SF-539 CNS it was 27.1 µM. Also, the TGI with SK-MEL-5 melanoma is 61.9 µM; with SN12C renal, greater than 100 µM; in the experiment with T-47D breast, 65.9 µM.
As to `CC1=CC(=O)/C(=C/N2CCNC2=S)C(=O)O1`, the TGI in the experiment on A498 renal, with CCRF-CEM leukemia, in the experiment on DU-145 prostate, in the experiment with MCF7 breast, in the experiment with SF-539 CNS and with SK-MEL-5 melanoma was greater than 100 µM each time. Further, the TGI in the experiment with SN12C renal, in the experiment with T-47D breast and in the experiment with UACC-257 melanoma was greater than 100 µM throughout.
For `CC12CCC(C1)C(C)(C)C2OC(=O)c1ccccc1C(=O)O` (stereo not drawn), the TGI in the experiment with A498 renal, with DU-145 prostate, with MCF7 breast, in the experiment on SK-MEL-5 melanoma, in the experiment with SN12C renal and with T-47D breast was greater than 100 µM in each case. In the experiment on UACC-257 melanoma, this compound had a TGI greater than 100 µM.
Regarding `O=[N+]([O-])c1ccc(Cl)cc1N/N=C/c1cccs1`, the TGI in the experiment with CCRF-CEM leukemia, with DU-145 prostate, with MCF7 breast, in the experiment with OVCAR-3 ovarian, with SF-539 CNS and in the experiment with SK-MEL-5 melanoma was greater than 100 µM in each case. The TGI in the experiment with SN12C renal, in the experiment with T-47D breast and with UACC-257 melanoma was greater than 100 µM each time.
